Columns and labels:
[1] = tested on: Hedgehog Signaling Pathway; experiment: SHH-induced differentiation of C3H10T1/2 cells into osteoblastic cells, intracellular alkaline phosphatase activity; assay type: cell-based, mouse; conditions: Mus musculus, C3H 10T1/2, 120 h, 10 nM SHH-N, 5 days, alkaline phosphatase activity (OD405), read-out: IC50 values of compounds that inhibit Hh pathway
Experimental: (§1) The Application of SHH to Induce Pluripotent Mesenchymal Mouse Embryonic Cell C3H10T1/2 to Differentiate into Osteoblastic Cells for the Determination of the Inhibitory Activity of N-(3-(1H-benzo[d]imidazol-2-yl)-4-chlorophenyl)-2-methyl-4-((2S,6R)-2,6-dimethylmorpholino)benzamide and Analogs on Hedgehog Signaling Pathway
The C3H10T1/2 cells were grown in DMEM medium supplemented with 10% fetal bovine serum (FBS, Hyclone) at 37° C. with 5% CO2. 10000 cells were sown to each well of a 96-well microplate a day before the experiment and grown overnight. […] The reference compound and testing compounds were serially diluted 1 to 3 and 1 to 10 in DMSO to seven concentrations with the eighth concentration being DMSO. A 10-fold dilution was prepared by mixing 10 μL of the DMSO dilutions with 90 μL of fresh growing medium. Pre-sown cells were taken out from incubator and the medium was removed. To each well, 180 μL of inducing medium containing 10 nM of SHH-N was added and followed immediately with 20 μL of 10× testing or reference compound dilutions. The testing compound concentrations are between 10 μM and 10 nM. The cells were then returned to CO2 incubator to grow additional 5 days at 37° C.
(§2) After incubating for 5 days, the cells were taken out and intracellular alkaline phosphatase activity was tested. The alkaline phosphatase activity was measured as follows:
3) Preparation of Substrate Solution:
(§3) Solution A: A 0.5 mM MgCl2 (Sigma Prod. No. M-0250) solution was prepared.
(§4) After the pH value was adjusted to 9.8 with 5 M HCl at 37° C., the total volume was adjusted to 100 mL.
(§5) After it is completely dissolved the total volume was adjusted to 10 mL with the final concentration being 1 mM.
Substrate reaction medium: to 10 mL of solution B, 250 μL of solution A and 200 μL of solution C were added, and mixed well.
4) The Measurement of Intracellular Alkaline Phosphatase Activity:
(§6) After taking out the cells from the incubator, the cell culture medium was removed and cells were washed twice with PBS. 20 μL of lysis solution (0.2% Triton solution) was added to each well. After being shaken for 30 min at room temperature, each well of cells received 80 μL of substrate reaction medium. The microplate was placed immediately into a VariSkan Flashplate reader and absorbance at OD405 was read as background reading. The plate was replaced back to cell culture incubator at 37° C. for additional 30 min and the absorbance was read again using VariSkan Flash plate reader at OD405.
(§7) The data were analyzed by subtracting the background reading from the reading at 30 min, and the obtained numbers were plotted and analyzed with Prism 5 software (GraphPad). The phosphatase activity (calculated OD405) was plotted against the log concentration of testing compound, and the obtained plot was fitted with non-linear curve fitting equation to calculate IC50 values. The curve fitting equation is Y=Bottom+(Top−Bottom)/(1+10^(X−Log IC50)). X is the logarithm of concentration. Y is the measure of alkaline phosphatase activity (OD405).
(§8) The calculated IC50 value is a measurement of the inhibitory activity of compound to Hh pathway.

[2] = tested on: Hedgehog Signaling Pathway; experiment: SAG-induced differentiation of C3H10T1/2 cells into osteoblastic cells, intracellular alkaline phosphatase activity; assay type: cell-based, mouse; conditions: Mus musculus, C3H 10T1/2, 120 h, 1 μM SAG, 5 days, alkaline phosphatase activity (OD405), read-out: IC50 values of compounds that inhibit Hh pathway
Source text: as §1, with “SAG” for “SHH”, “C3H/10T1/2” for “C3H10T1/2”
The intracellular alkaline phosphatase activity is a reliable indication of the differentiation process. Therefore this enzymatic activity can be used to monitor the activity of hedgehog pathway inhibitors.
The C3H10T1/2 cells were grown in DMEM medium supplemented with 10% fetal bovine serum (FBS, Hyclone) at 37° C. with 5% CO2. 10000 cells were sown to each well of a 96-well microplate a day before the experiment and grown overnight. At the day of experiment, the inducing medium and inhibitor solutions were prepared as follows: the reference compound and testing compounds were serially diluted 1 to 3 and 1 to 10 in DMSO to seven concentrations with the eighth concentration being DMSO. A 10-fold dilution was prepared by mixing 10 μL of the DMSO dilution with 90 μL of fresh growing medium. […] Pre-sown cells were taken out from incubator and the medium was removed. To each well, 180 μL inducing medium was added and followed immediately with 20 μL of testing or reference compound dilutions. The testing compound concentrations are between 10 μM and 1 nM. The cells were then return to CO2 incubator to grow additional 5 days at 37° C.
as §2
1) Preparation of Substrate Solution:
as §3, §4, §5
Substrate reaction medium: To 10 mL of solution B, 250 μL of solution A and 200 μL of solution C were added, and mixed well.
2) the Measurement of Intracellular Alkaline Phosphatase Activity:
as §6
as §7, with “Y=Bottom+(Top−Bottom)/(1+10^((X−Log IC50))).” for “Y=Bottom+(Top−Bottom)/(1+10^(X−Log IC50)).”
as §8

Compound | IC50 [1] | IC50 [2]
Cc1cc(-c2ccc(C(F)(F)F)cc2)ccc1C(=O)Nc1cccc(-c2nc3ccccc3[nH]2)c1Cl [Example 64, N-(3-(1H-benzo[d]imidazol-2-yl)-2-chlorophenyl)-3-methyl-4′-(trifluoromethyl)biphenyl-4-carboxamide] | 1130 nM | 636 nM
Cc1cc(-c2cccc(F)c2)ccc1C(=O)Nc1ccc(Cl)c(-c2nc3ccccc3[nH]2)c1 [Example 10, N-(3-(1H-benzo[d]imidazol-2-yl)-4-chlorophenyl)-3-methyl-3′-fluorobiphenyl-4-carboxamide] | 6.3 nM | 74 nM
Cc1cc(-c2ccc(C(F)(F)F)cc2)ccc1C(=O)Nc1ccc(Cl)c(-c2nnc3ccccn23)c1 [Example 52, N-(3-([1,2,4]triazolo[4,3-a]pyridin-3-yl)-4-chlorophenyl)-3-methyl-4′-(trifluoromethyl)biphenyl-4-carboxamide] | 465 nM | 740 nM
Cc1c(NC(=O)c2ccc(N3C[C@@H](C)O[C@@H](C)C3)nc2)cccc1-c1nc2ccccc2[nH]1 [Example 65, N-(3-(1H-benzo[d]imidazol-2-yl)-2-methylphenyl)-6-((2S,6R)-2,6-dimethylmorpholino)nicotinamide] | 501 nM | 522 nM
O=C1c2ccc(-c3ccc(C(F)(F)F)cc3)cc2OCN1c1ccc(Cl)c(-c2nc3ccccc3[nH]2)c1 [Example 28, 3-(3-(1H-benzo[d]imidazol-2-yl)-4-chlorophenyl)-7-(4-(trifluoromethyl)phenyl)-2H-benzo[e][1,3]oxazin-4(3H)-one] | 59 nM | 228 nM
Cc1cc(-c2ccc(C(F)(F)F)cc2)cc(C)c1C(=O)Nc1ccc(Cl)c(-c2nc3ccccc3[nH]2)c1 [Example 20, N-(3-(1H-benzo[d]imidazol-2-yl)-4-chlorophenyl)-3,5-dimethyl-4′-(trifluoromethyl)biphenyl-4-carboxamide] | 59 nM | > 10000 nM
Cc1cc(-c2ccc(N)cc2)ccc1C(=O)Nc1ccc(Cl)c(-c2nc3ccccc3[nH]2)c1 [Example 24, N-(3-(1H-benzo[d]imidazol-2-yl)-4-chlorophenyl)-3-methyl-4′-aminobiphenyl-4-carboxamide] | 62 nM | 255 nM
COc1ccc(NC(=O)c2ccc(-c3ccc(C(F)(F)F)cc3)cc2C)cc1-c1nc2ccccc2[nH]1 [Example 76, N-(3-(1H-benzo[d]imidazol-2-yl)-4-methoxyphenyl)-3-methyl-4′-(trifluoromethyl)biphenyl-4-carboxamide] | > 10000 nM | > 10000 nM
O=c1c2ccc(-c3ccc(C(F)(F)F)cc3)cc2ncn1-c1ccc(Cl)c(-c2nc3ccccc3[nH]2)c1 [Example 27, 3-(3-(1H-benzo[d]imidazol-2-yl)-4-chlorophenyl)-7-(4-(trifluoromethyl)phenyl)quinazolin-4(3H)-one] | 57 nM | 151 nM
Cc1cc(-c2ccoc2)ccc1C(=O)Nc1ccc(Cl)c(-c2nc3ccccc3[nH]2)c1 [Example 41, N-(3-(1H-benzo[d]imidazol-2-yl)-4-chlorophenyl)-2-methyl-4-(furan-3-yl)benzamide] | 32 nM | 99 nM
COc1cc(-c2ccc(C(F)(F)F)cc2)ccc1C(=O)Nc1ccc(Cl)c(-c2nc3ccccc3[nH]2)c1 [Example 15, N-(3-(1H-benzo[d]imidazol-2-yl)-4-chlorophenyl)-3-methoxy-4′-(trifluoromethyl)biphenyl-4-carboxamide] | 40 nM | > 10000 nM
Cc1cc(N2CCOCC2)ccc1C(=O)Nc1ccc(Cl)c(-c2nc3ccccc3[nH]2)c1 [Example 30, N-(3-(1H-benzo[d]imidazol-2-yl)-4-chlorophenyl)-2-methyl-4-morpholinobenzamide] | 31 nM | 88 nM
Cc1cc(-c2ccc(C(F)(F)F)cc2)ccc1C(=O)Nc1cccc(-c2nc3ccccn3n2)c1 [Example 73, N-(3-([1,2,4]triazolo[1,5-a]pyridin-2-yl)phenyl)-3-methyl-4′-(trifluoromethyl)biphenyl-4-carboxamide] | 134 nM | 163 nM
O=C(Nc1ccc(Cl)c(-c2nc3ccccc3[nH]2)c1)c1ccc(-c2ccc(C(F)(F)F)cc2)cc1O [Example 16, N-(3-(1H-benzo[d]imidazol-2-yl)-4-chlorophenyl)-3-hydroxy-4′-(trifluoromethyl)biphenyl-4-carboxamide] | > 10000 nM | > 10000 nM
O=C(Nc1ccc(Cl)c(-c2nc3ccccc3[nH]2)c1)c1ccc(-c2ccc(F)cc2)cc1 [Example 12, N-(3-(1H-benzo[d]imidazol-2-yl)-4-chlorophenyl)-4′-fluorobiphenyl-4-carboxamide] | 18 nM | 153 nM
Cc1cc(-c2ccc(C(F)(F)F)cc2)ccc1C(=O)Nc1ccc(Br)c(-c2nc3ccccc3[nH]2)c1 [Example 75, N-(3-(1H-benzo[d]imidazol-2-yl)-4-bromophenyl)-3-methyl-4′-(trifluoromethyl)biphenyl-4-carboxamide] | 2.9 nM | 17 nM
C[C@@H]1CN(c2ccc(C(=O)Nc3cccc(-c4cn5cccnc5n4)c3)cn2)C[C@H](C)O1 [Example 57, N-(3-(imidazo[1,2-a]pyrimidin-2-yl)phenyl)-6-((2S,6R)-2,6-dimethylmorpholino)nicotinamide] | > 10000 nM | > 10000 nM
Cc1cc(-c2ccc(C(F)(F)F)cc2)ccc1C(=O)Nc1ccc(Cl)c(-c2ncc(-c3cccnc3)[nH]2)c1 [Example 51, N-(3-(5-(pyridin-3-yl)-1H-imidazol-2-yl)-4-chlorophenyl)-3-methyl-4′-(trifluoromethyl)biphenyl-4-carboxamide] | 77 nM | > 10000 nM
Cc1cc(-c2ccc(C(F)(F)F)cc2)ccc1C(=O)Nc1ccc(Cl)c(-c2nnc3ncccn23)c1 [Example 53, N-(3-([1,2,4]triazolo[4,3-a]pyrimidin-3-yl)-4-chlorophenyl)-3-methyl-4′-(trifluoromethyl)biphenyl-4-carboxamide] | > 10000 nM | > 10000 nM
Cc1ccc(NC(=O)c2ccc(N3C[C@@H](C)N(C)[C@@H](C)C3)cc2Cl)cc1-c1nc2ccccc2[nH]1 [Example 102, N-(3-(1H-benzo[d]imidazol-2-yl)-4-methylphenyl)-2-chloro-4-((3S,5R)-3,4,5-trimethylpiperazin-1-yl)benzamide] | 3.9 nM | 47 nM

Source: patent US10676468B2, “N-(3-heteroarylaryl)-4-arylarylcarboxamides and analogs as hedgehog pathway inhibitors and use thereof” (IMPACT Therapeutics, Inc., priority 2012, dated 2020)
